Source: patent US20230190704A1, “DRUG DELIVERY SYSTEM BASED ON CALCIUM PHOSPHATE NANOPARTICLES FUNCTIONALIZED WITH BIOACTIVE COMPOUNDS FROM EUPHORBIA EXTRACT AND THE USES THEREOF” (CELLBITEC, S.L., priority 2020, published 2023)
pIC50: −log10 of the molar value. Converted amounts (≈) assume the structure as drawn.

Tests used:
[1] = tested on: 15 in vitro models with tumor cells; conditions: 15 in vitro tumor cell models; read-out: inhibitory dose 50 (IC50); cited from earlier work
[2] = tested on: T84 human colon adenocarcinoma cell line; test: Antiproliferative SRB assay of nanoparticles and isolated compounds in T84 cells; assay type: cell-based; conditions: T84, isolated compound, 72 h
Experimental: The human colon adenocarcinoma cell line T84was purchased from the American Type Culture Collection (Rockville, MD, USA). The non-tumor colon cell line CCD18 (human colon epithelial cell line) was used as control. All cell lines were grown in Dulbecco’s Modified Eagle’s Medium (DMEM) supplemented with 10% heat-inactivated fetal bovine serum (FBS) and ATB (antibiotic, streptomycin + amphotericin B) at 1% and maintained in an incubator at 37° C. and 5% CO2 humidified atmosphere.
Cells were seeded in 48-well plates with DMEM (Dulbecco’s modified Eagles Medium) (300 ul) at a density of 4 x 10^3 cells/well in CCD18 and 5 x 10^3 cells/well in T84. After 24 hours, cell cultures were exposed 72 h to increasing concentrations of the nanoparticles dissolved in DMEM. In addition, bioactive components of the extract, Esculetin (range from 0.1 µg/ml to 5 µg/ml) and Euphorbetin (range from 0.02 µg/ml to 0.7 µg/ml), were combined at different concentration in order to determine their antitumor activity and to compare with nanoparticle activity and ethanolic extract activity. After incubation time, cells were fixed with trichloroacetic acid (TCA) at 10% for 20 minutes at 4° C. […] Finally, the optical density (OD) at 492 nm was measured in a spectrophotometer. Cell survival (%) was calculated according to the following equation: […]

IC50 [2] [µg/mL]	SMILES	pIC50 [1]
–	CC(C)=CCC[C@@H](C)[C@@H]1CC[C@]2(C)C3=C(CC[C@@]12C)[C@@]1(C)CC[C@H](O)C(C)(C)[C@@H]1CC3 [Euphol]	4.52 to 5.70
0.27 (≈ 1.52 µM)	O=c1ccc2cc(O)c(O)cc2o1 [Esculetin, esculetin]	–
